US9550796B2, “Pyrrolopyrrolone derivatives and their use as BET inhibitors” (NOVARTIS AG, priority 2013, dated 2017)

Columns and labels:
BRD4 = BRD4 (Homo sapiens (Human), UniProt O60885); experiment: TR-FRET in-vitro binding assay for BRD4; conditions: 45 nM His-Brd4(44-477), acetyl-histone H4 (AcK 5, 8, 12, 16) peptide
Method in brief: (§1)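 TR-FRET binding read after 35 min incubation at 30° C. Compounds dispensed from 90% DMSO solutions and tested at 8 concentrations in a 13.55 μL total reaction volume.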

BRD2 = BRD2 (Homo sapiens (Human), UniProt P25440); experiment: TR-FRET in-vitro binding assay for BRD2; conditions: 45 nM His-Brd2(60-472), acetyl-histone H4 (AcK 5, 8, 12, 16) peptide
Sequence of BRD2 (P25440 60-472): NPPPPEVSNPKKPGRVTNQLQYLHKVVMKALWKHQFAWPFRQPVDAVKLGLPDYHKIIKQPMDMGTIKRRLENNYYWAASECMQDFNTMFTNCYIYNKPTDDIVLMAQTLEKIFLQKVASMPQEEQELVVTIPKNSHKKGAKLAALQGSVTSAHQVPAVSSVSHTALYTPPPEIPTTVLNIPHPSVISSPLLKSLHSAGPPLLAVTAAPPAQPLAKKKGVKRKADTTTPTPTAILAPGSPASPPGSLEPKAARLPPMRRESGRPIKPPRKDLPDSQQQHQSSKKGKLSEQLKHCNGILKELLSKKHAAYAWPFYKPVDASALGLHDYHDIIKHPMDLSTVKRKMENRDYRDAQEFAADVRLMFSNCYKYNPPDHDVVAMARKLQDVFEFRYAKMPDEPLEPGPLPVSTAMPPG
Method in brief: as §1

BRD3 = BRD3 (Homo sapiens (Human), UniProt Q15059); experiment: TR-FRET in-vitro binding assay for BRD3; conditions: 45 nM His-Brd3(20-477), acetyl-histone H4 (AcK 5, 8, 12, 16) peptide
Sequence of BRD3 (Q15059 20-477): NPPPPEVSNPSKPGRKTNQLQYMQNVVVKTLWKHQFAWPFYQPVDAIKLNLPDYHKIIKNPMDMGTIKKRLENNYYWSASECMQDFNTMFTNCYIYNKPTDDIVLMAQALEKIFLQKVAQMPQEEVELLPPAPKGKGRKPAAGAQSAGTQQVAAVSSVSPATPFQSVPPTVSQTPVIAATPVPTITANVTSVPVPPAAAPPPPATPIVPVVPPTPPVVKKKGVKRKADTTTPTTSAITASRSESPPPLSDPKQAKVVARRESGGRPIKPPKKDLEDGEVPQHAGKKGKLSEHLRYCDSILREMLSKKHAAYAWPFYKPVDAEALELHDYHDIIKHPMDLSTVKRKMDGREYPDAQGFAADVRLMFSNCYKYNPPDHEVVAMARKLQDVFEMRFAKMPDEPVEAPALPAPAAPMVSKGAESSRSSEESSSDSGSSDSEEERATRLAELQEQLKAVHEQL
Method in brief: as §1

MV-4-11 = experiment: Cell growth inhibition assay (CellTiter-Glo), MV-4-11; type: cell-based, human; conditions: MV-4-11 cells, 4 days; for GI50: Homo sapiens, MV4-11, 96 h, half-maximal growth inhibition; for MV-4-11 TGI: total growth inhibition
Method in brief: (§2)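 4-day CTG ATP readout, 37 °C/5% CO2; top conc 10 μM, 3-fold dilutions; 0.1% DMSO vehicle. Luminescence background-subtracted, normalised to day 0 plate; vehicle = 100%, medium = −100%. IC50/TGI by 4-parameter fit.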

K-562 = experiment: Cell growth inhibition assay (CellTiter-Glo), K-562; type: cell-based, human; conditions: K-562 cells, 4 days; for GI50: Homo sapiens, K562, 96 h, half-maximal growth inhibition; for K-562 TGI: total growth inhibition
Method in brief: as §2

BRD4-NUT-fusion = BRD4-NUT-fusion (Homo sapiens, UniProt O60885); experiment: Nut-foci formation assay in HCC2494 NUT midline carcinoma cells; type: cell-based; conditions: 24 hours, nuclear BRD4-NUT foci by immunofluorescence microscopy, read-out: HCS Brd4-NUT IC50
Procedure: Nut-Foci Formation Assay […] Compound-mediated inhibition of BRD4 activity can be monitored by quantification of the number and intensity of nuclear BRD4-NUT foci using automated immunofluorescence microscopy. Briefly, 5000 cells in 20 μL fresh medium are seeded into Poly-D-Lysine-precoated 384-well plates and incubated overnight at 37° C. and 5% CO2, followed by addition of 5 μl medium containing compound dilutions at 5-fold their final intended concentration. […] Assay plates can be imaged using the appropriate filter sets on the Cellomics VTi automated fluorescence microscopy platform (ThermoFisher Scientific) and the population average of the number of NUT-foci per nucleus is quantified using the Cellomics Spot Detection BioApplication image analysis algorithm (ThermoFisher Scientific). […] Compound concentrations leading to half-maximal (IC50) inhibition of the aforementioned readout parameters are determined using standard four parameter curve fitting.

SMILES: Cc1cn(C)c2c1C(=O)N(c1cc(C)c3nnc(C)n3c1)C2c1ccc(Cl)cc1 (centres unmarked) [Example 33, 6-(4-chlorophenyl)-5-(3,8-dimethyl-[1,2,4]triazolo[4,3-a]pyridin-6-yl)-1,3-di methyl-5,6-dihydropyrrolo[3,4-b]pyrrol-4(1H)-one]
- IC50 (BRD4): 31 nM
- IC50 (BRD2): 36 nM
- IC50 (BRD3): 35 nM
- GI50 (MV-4-11): 7.71 nM
- MV-4-11 TGI (MV-4-11): 20.05 nM
- GI50 (K-562): 97.4 nM
- K-562 TGI (K-562): >10000 nM
- IC50 (BRD4-NUT-fusion): 9.55 nM

SMILES: Cc1cn(C)c2c1C(=O)N(c1cc(C)c(=O)n(C)c1)C2c1ccc(Cl)cc1 (centres unmarked) [Example 34, 6-(4-chlorophenyl)-5-(1,5-dimethyl-6-oxo-1,6-dihydropyridin-3-yl)-1,3-dimethyl-5,6-dihydropyrrolo[3,4-b]pyrrol-4(1H)-one]
- IC50 (BRD4): 43 nM
- IC50 (BRD2): 37 nM
- IC50 (BRD3): 32 nM
- GI50 (MV-4-11): 19.4 nM
- MV-4-11 TGI (MV-4-11): 48.3 nM
- GI50 (K-562): 241 nM
- K-562 TGI (K-562): >10000 nM
- IC50 (BRD4-NUT-fusion): 26.8 nM

SMILES: COc1ncc(-c2cc3c(n2C)C(c2ccc(Cl)cc2)N(c2cc(Cl)c(=O)n(C)c2)C3=O)c(OC)n1 (centres unmarked) [Example 38, 5-(5-chloro-1-methyl-6-oxo-1,6-dihydropyridin-3-yl)-6-(4-chlorophenyl)-2-(2,4-dimethoxypyrimidin-5-yl)-1-methyl-5,6-dihydropyrrolo[3,4-b]pyrrol-4(1H)-one]
- IC50 (BRD4): 47 nM
- IC50 (BRD2): 322 nM
- IC50 (BRD3): 59 nM
- GI50 (MV-4-11): 29.4 nM
- MV-4-11 TGI (MV-4-11): 51.5 nM
- GI50 (K-562): 154 nM
- K-562 TGI (K-562): >10000 nM
- IC50 (BRD4-NUT-fusion): 72.5 nM

SMILES: Cn1c(-c2ccc(=O)n(C)c2)cc2c1C(c1ccc(Cl)cc1)N(c1cc(Cl)c(=O)n(C)c1)C2=O (centres unmarked) [Example 42, 5-(5-chloro-1-methyl-6-oxo-1,6-dihydropyridin-3-yl)-6-(4-chlorophenyl)-1-methyl-2-(1-methyl-6-oxo-1,6-dihydropyridin-3-yl)-5,6-dihydropyrrolo[3,4-b]pyrrol-4(1H)-one]
- IC50 (BRD4): 270 nM
- IC50 (BRD3): 53 nM
- GI50 (MV-4-11): 227 nM
- MV-4-11 TGI (MV-4-11): 348 nM
- GI50 (K-562): 3190 nM
- K-562 TGI (K-562): >10000 nM
- IC50 (BRD4-NUT-fusion): 4970 nM

SMILES: Cc1cc(N2C(=O)c3cc(-c4ccn(C)c(=O)c4)n(C)c3C2c2ccc(Cl)cc2)cn(C)c1=O (centres unmarked) [Example 45, 6-(4-chlorophenyl)-5-(1,5-dimethyl-6-oxo-1,6-dihydropyridin-3-yl)-1-methyl-2-(1-methyl-2-oxo-1,2-dihydropyridin-4-yl)-5,6-dihydropyrrolo[3,4-b]pyrrol-4(1H)-one]
- IC50 (BRD4): 24.5 nM
- IC50 (BRD2): 22 nM
- IC50 (BRD3): 18.5 nM
- GI50 (MV-4-11): 55.9 nM
- MV-4-11 TGI (MV-4-11): 96.7 nM
- GI50 (K-562): 345 nM
- K-562 TGI (K-562): >10000 nM
- IC50 (BRD4-NUT-fusion): 97.3 nM

SMILES: COc1ncc(-c2cc3c(n2C)[C@@H](c2ccc(Cl)cc2)N(c2cc(C)c(=O)n(C)c2)C3=O)c(OC)n1 [Example 54, (R)-6-(4-chlorophenyl)-2-(2,4-dimethoxypyrimidin-5-yl)-5-(1,5-dimethyl-6-oxo-1,6-dihydropyridin-3-yl)-1-methyl-5,6-dihydropyrrolo[3,4-b]pyrrol-4(1H)-one]
- IC50 (BRD4): 45 nM
- IC50 (BRD2): 27 nM
- IC50 (BRD3): 28 nM
- GI50 (MV-4-11): 8.9 nM
- MV-4-11 TGI (MV-4-11): 18 nM
- GI50 (K-562): 48.3 nM
- K-562 TGI (K-562): >10000 nM
- IC50 (BRD4-NUT-fusion): 26.7 nM

SMILES: COc1ncc(-c2cc3c(n2C)[C@@H](c2ccc(Cl)cc2)N(c2cc(C)c(=O)n(C)c2)C3=O)cn1 [Example 56, (R)-6-(4-chlorophenyl)-5-(1,5-dimethyl-6-oxo-1,6-dihydropyridin-3-yl)-2-(2-methoxypyrimidin-5-yl)-1-methyl-5,6-dihydropyrrolo[3,4-b]pyrrol-4(1H)-one]
- IC50 (BRD4): 28.3 nM
- IC50 (BRD2): 30 nM
- IC50 (BRD3): 22 nM
- GI50 (MV-4-11): 24.8 nM
- MV-4-11 TGI (MV-4-11): 44.5 nM
- GI50 (K-562): 103 nM
- K-562 TGI (K-562): >10000 nM
- IC50 (BRD4-NUT-fusion): 39.1 nM

SMILES: Cc1cc2c(n1C)[C@@H](c1ccc(Cl)cc1)N(c1cc(Cl)c(=O)n(C)c1)C2=O [Example 75, (R)-5-(5-chloro-1-methyl-6-oxo-1,6-dihydropyridin-3-yl)-6-(4-chlorophenyl)-1,2-dimethyl-5,6-dihydropyrrolo[3,4-b]pyrrol-4(1H)-one]
- IC50 (BRD4): 85.3 nM
- IC50 (BRD2): 135 nM
- IC50 (BRD3): 53.3 nM
- GI50 (MV-4-11): 54.8 nM
- MV-4-11 TGI (MV-4-11): 102 nM
- GI50 (K-562): 289 nM
- K-562 TGI (K-562): >10000 nM
- IC50 (BRD4-NUT-fusion): 11.2 nM

SMILES: Cn1ccc2c1[C@@H](c1ccc(Cl)cc1)N(c1cc(Cl)c(=O)n(C)c1)C2=O [Example 77, (R)-5-(5-chloro-1-methyl-6-oxo-1,6-dihydropyridin-3-yl)-6-(4-chlorophenyl)-1-methyl-5,6-dihydropyrrolo[3,4-b]pyrrol-4(1H)-one]
- IC50 (BRD4): 109 nM
- IC50 (BRD2): 198 nM
- IC50 (BRD3): 94.5 nM
- GI50 (MV-4-11): 57.6 nM
- MV-4-11 TGI (MV-4-11): 96.3 nM
- GI50 (K-562): 342 nM
- K-562 TGI (K-562): >10000 nM
- IC50 (BRD4-NUT-fusion): 10.1 nM
